Data reported in US9593305B2, “Differentiation of pluripotent stem cells” (Janssen Biotech, Inc., priority 2008, dated 2017).

System: H1 human embryonic stem cells
Test: Secondary assay: compound combined with individual growth factors or small molecules, no activin A (Example 5, Table 4);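 as to Cell Number, Average Total Cell Number: Four-day assay with feeding on alternate days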;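 as to Sox17 Expression, Average Total Intensity: Four-day assay with feeding on alternate days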
Type: cell-based
[1] = no AA (with Wnt3a), bicuculline
[2] = no AA (with Wnt3a), EGF + FGF4 + PDGF-A + Muscimol
[3] = no AA (with Wnt3a), EGF + FGF4 + PDGF-A + VEGF
[4] = no AA (with Wnt3a), EGF + FGF4 + PDGF-AB
[5] = no AA (with Wnt3a), EGF + FGF4 + PDGF-AB + Muscimol
[6] = no AA (with Wnt3a), EGF + PDGF-A + VEGF
[7] = no AA (with Wnt3a), FGF4 + PDGF-A + VEGF

CCN1CC(=O)NCCCc2cncc(c2)-c2ncnc(n2)Nc2cc(Cl)cc(c2)C1 [Compound 35, 10-Chloro-14-ethyl-3,5,7,14,17,23,27-heptaazatetracyclo[19.3.1.1˜2,6˜0.1˜8,12]Theptacosa-1(25), 2(27), 3,5,8(26), 9,11,21,23-nonaen-16-one]
Cell Number, % of positive control (no AA (with Wnt3a), BMP1): 210.81% | Cell Number, Average Total Cell Number (no AA (with Wnt3a), BMP1): 18849 | Sox17 Expression, % of positive control (no AA (with Wnt3a), BMP1): 6.59% | Sox17 Expression, Average Total Intensity (no AA (with Wnt3a), BMP1): 1.29E+07 | Cell Number, % of positive control (no AA (with Wnt3a), BMP2): 181.38% | Cell Number, Average Total Cell Number (no AA (with Wnt3a), BMP2): 16218 | Sox17 Expression, % of positive control (no AA (with Wnt3a), BMP2): 4.55% | Sox17 Expression, Average Total Intensity (no AA (with Wnt3a), BMP2): 8.89E+06 | Cell Number, % of positive control (no AA (with Wnt3a), BMP2/7): 134.67% | Cell Number, Average Total Cell Number (no AA (with Wnt3a), BMP2/7): 12042 | Sox17 Expression, % of positive control (no AA (with Wnt3a), BMP2/7): 3.62% | Sox17 Expression, Average Total Intensity (no AA (with Wnt3a), BMP2/7): 7.08E+06 | Cell Number, % of positive control (no AA (with Wnt3a), BMP4): 187.31% | Cell Number, Average Total Cell Number (no AA (with Wnt3a), BMP4): 16748 | Sox17 Expression, % of positive control (no AA (with Wnt3a), BMP4): 4.59% | Sox17 Expression, Average Total Intensity (no AA (with Wnt3a), BMP4): 8.97E+06 | Cell Number, % of positive control (no AA (with Wnt3a), BMP7): 224.91% | Cell Number, Average Total Cell Number (no AA (with Wnt3a), BMP7): 20111 | Sox17 Expression, % of positive control (no AA (with Wnt3a), BMP7): 4.12% | Sox17 Expression, Average Total Intensity (no AA (with Wnt3a), BMP7): 8.05E+06 | Cell Number, % of positive control (no AA (with Wnt3a), Butyrate): 159.24% | Cell Number, Average Total Cell Number (no AA (with Wnt3a), Butyrate): 14238 | Sox17 Expression, % of positive control (no AA (with Wnt3a), Butyrate): −0.94% | Sox17 Expression, Average Total Intensity (no AA (with Wnt3a), Butyrate): −1.85E+06 | Cell Number, % of positive control (no AA (with Wnt3a), EGF): 216.23% | Cell Number, Average Total Cell Number (no AA (with Wnt3a), EGF): 19334 | Sox17 Expression, % of positive control (no AA (with Wnt3a), EGF): 33.86% | Sox17 Expression, Average Total Intensity (no AA (with Wnt3a), EGF): 6.62E+07 | Cell Number, % of positive control (no AA (with Wnt3a), FGF4): 49.32% | Cell Number, Average Total Cell Number (no AA (with Wnt3a), FGF4): 4410 | Sox17 Expression, % of positive control (no AA (with Wnt3a), FGF4): 17.04% | Sox17 Expression, Average Total Intensity (no AA (with Wnt3a), FGF4): 3.33E+07 | Cell Number, % of positive control (no AA (with Wnt3a), LY294002): 205.49% | Cell Number, Average Total Cell Number (no AA (with Wnt3a), LY294002): 18374 | Sox17 Expression, % of positive control (no AA (with Wnt3a), LY294002): 5.28% | Sox17 Expression, Average Total Intensity (no AA (with Wnt3a), LY294002): 1.03E+07 | Cell Number, % of positive control (no AA (with Wnt3a), Muscimol): 211.00% | Cell Number, Average Total Cell Number (no AA (with Wnt3a), Muscimol): 18867 | Sox17 Expression, % of positive control (no AA (with Wnt3a), Muscimol): 13.35% | Sox17 Expression, Average Total Intensity (no AA (with Wnt3a), Muscimol): 2.61E+07 | Cell Number, % of positive control (no AA (with Wnt3a), PD98059): 211.11% | Cell Number, Average Total Cell Number (no AA (with Wnt3a), PD98059): 18877 | Sox17 Expression, % of positive control (no AA (with Wnt3a), PD98059): 6.64% | Sox17 Expression, Average Total Intensity (no AA (with Wnt3a), PD98059): 1.30E+07 | Cell Number, % of positive control (no AA (with Wnt3a), PDGF-A): 188.84% | Cell Number, Average Total Cell Number (no AA (with Wnt3a), PDGF-A): 16885 | Sox17 Expression, % of positive control (no AA (with Wnt3a), PDGF-A): 22.94% | Sox17 Expression, Average Total Intensity (no AA (with Wnt3a), PDGF-A): 4.48E+07 | Cell Number, % of positive control (no AA (with Wnt3a), PDGF-AB): 186.34% | Cell Number, Average Total Cell Number (no AA (with Wnt3a), PDGF-AB): 16662 | Sox17 Expression, % of positive control (no AA (with Wnt3a), PDGF-AB): 25.33% | Sox17 Expression, Average Total Intensity (no AA (with Wnt3a), PDGF-AB): 4.95E+07 | Cell Number, % of positive control (no AA (with Wnt3a), PDGF-B): 158.46% | Cell Number, Average Total Cell Number (no AA (with Wnt3a), PDGF-B): 14168 | Sox17 Expression, % of positive control (no AA (with Wnt3a), PDGF-B): 7.76% | Sox17 Expression, Average Total Intensity (no AA (with Wnt3a), PDGF-B): 1.52E+07 | Cell Number, % of positive control (no AA (with Wnt3a), PDGF-C): 186.12% | Cell Number, Average Total Cell Number (no AA (with Wnt3a), PDGF-C): 16642 | Sox17 Expression, % of positive control (no AA (with Wnt3a), PDGF-C): 9.46% | Sox17 Expression, Average Total Intensity (no AA (with Wnt3a), PDGF-C): 1.85E+07 | Cell Number, % of positive control (no AA (with Wnt3a), PDGF-D): 197.03% | Cell Number, Average Total Cell Number (no AA (with Wnt3a), PDGF-D): 17618 | Sox17 Expression, % of positive control (no AA (with Wnt3a), PDGF-D): 9.41% | Sox17 Expression, Average Total Intensity (no AA (with Wnt3a), PDGF-D): 1.84E+07 | Cell Number, % of positive control (no AA (with Wnt3a), U0124): 184.97% | Cell Number, Average Total Cell Number (no AA (with Wnt3a), U0124): 16539 | Sox17 Expression, % of positive control (no AA (with Wnt3a), U0124): 3.86% | Sox17 Expression, Average Total Intensity (no AA (with Wnt3a), U0124): 7.54E+06 | Cell Number, % of positive control (no AA (with Wnt3a), U0126): 223.24% | Cell Number, Average Total Cell Number (no AA (with Wnt3a), U0126): 19961 | Sox17 Expression, % of positive control (no AA (with Wnt3a), U0126): −0.29% | Sox17 Expression, Average Total Intensity (no AA (with Wnt3a), U0126): −5.75E+05 | Cell Number, % of positive control (no AA (with Wnt3a), VEGF): 204.25% | Cell Number, Average Total Cell Number (no AA (with Wnt3a), VEGF): 18263 | Sox17 Expression, % of positive control (no AA (with Wnt3a), VEGF): 17.98% | Sox17 Expression, Average Total Intensity (no AA (with Wnt3a), VEGF): 3.51E+07 | Cell Number, % of positive control [1]: 215.98% | Cell Number, Average Total Cell Number [1]: 19312 | Sox17 Expression, % of positive control [1]: 1.00% | Sox17 Expression, Average Total Intensity [1]: 1.95E+06 | Cell Number, % of positive control (no AA (with Wut3a), BMP6): 199.50% | Cell Number, Average Total Cell Number (no AA (with Wut3a), BMP6): 17838 | Sox17 Expression, % of positive control (no AA (with Wut3a), BMP6): 3.75% | Sox17 Expression, Average Total Intensity (no AA (with Wut3a), BMP6): 7.32E+06

O=C1NCCCc2cncc(c2)-c2ncnc(n2)Nc2cccc(c2)CN2CCCC1C2 (centres unmarked) [Compound 17, 3,5,7,14,20,26,31-Heptaazapentacyclo[22.3.1.1-2,6˜1˜8,12˜1˜14,18˜]hentriaconta-1(28), 2(31), 3,5,8(30), 9,11,24,26-nonaen-19-one]
Cell Number, % of positive control (no AA (with Wnt3a), EGF): 73.43% | Cell Number, Average Total Cell Number (no AA (with Wnt3a), EGF): 6942 | Sox17 Expression, % of positive control (no AA (with Wnt3a), EGF): 0.74% | Sox17 Expression, Average Total Intensity (no AA (with Wnt3a), EGF): 1.27E+06 | Cell Number, % of positive control (no AA (with Wnt3a), EGF + FGF4): 60.69% | Cell Number, Average Total Cell Number (no AA (with Wnt3a), EGF + FGF4): 5738 | Sox17 Expression, % of positive control (no AA (with Wnt3a), EGF + FGF4): 1.83% | Sox17 Expression, Average Total Intensity (no AA (with Wnt3a), EGF + FGF4): 3.14E+06 | Cell Number, % of positive control [2]: 144.37% | Cell Number, Average Total Cell Number [2]: 13649 | Sox17 Expression, % of positive control [2]: 8.43% | Sox17 Expression, Average Total Intensity [2]: 1.45E+07 | Cell Number, % of positive control [3]: 110.85% | Cell Number, Average Total Cell Number [3]: 10480 | Sox17 Expression, % of positive control [3]: 5.23% | Sox17 Expression, Average Total Intensity [3]: 8.97E+06 | Cell Number, % of positive control [4]: 47.10% | Cell Number, Average Total Cell Number [4]: 4453 | Sox17 Expression, % of positive control [4]: 0.54% | Sox17 Expression, Average Total Intensity [4]: 9.30E+05 | Cell Number, % of positive control [5]: 109.91% | Cell Number, Average Total Cell Number [5]: 10391 | Sox17 Expression, % of positive control [5]: 5.20% | Sox17 Expression, Average Total Intensity [5]: 8.92E+06 | Cell Number, % of positive control [6]: 60.59% | Cell Number, Average Total Cell Number [6]: 5728 | Sox17 Expression, % of positive control [6]: 1.24% | Sox17 Expression, Average Total Intensity [6]: 2.14E+06 | Cell Number, % of positive control [7]: 139.59% | Cell Number, Average Total Cell Number [7]: 13198 | Sox17 Expression, % of positive control [7]: 7.54% | Sox17 Expression, Average Total Intensity [7]: 1.29E+07
